Measurements as given in patent US20240425464A1, “Substituted Monohydrazides as Potent Antifungal Agents” (University of Kentucky Research Foundation, priority 2023, published 2024).
Values after ≈ are worked out from the molar mass of the structure shown. Like-named read-outs stand apart in the source and are kept apart here.

Legend:
Assay in all cases: MIC determination by in vitro antifungal assay
Assay type in all cases: cell-based
[1] = test system: Candida glabrata ATCC 2001 (H); details: ATCC 2001 in text
Description: (§1) 10 mg/mL stock solutions of compounds 1a-9j were prepared in dimethyl sulfoxide (DMSO) and were stored at −20° C. in the dark. The antifungal agent amphotericin B (AmB) was purchased from VWR (Radnor PA, USA). AmB was dissolved in DMSO at a final concentration of 5 mg/mL and was stored at −20° C., protected from light. Candida albicans American Type Culture Collection (ATCC) 10231 (strain A), C. albicans ATCC 64124 (B), and C. albicans ATCC MYA-2876 (C) were obtained from Utah State University. C. albicans ATCC 90819 (D), C. albicans ATCC MYA-2310 (E), C. albicans ATCC MYA-1237 (F), C. albicans ATCC MYA-1003 (G), Candida glabrata ATCC 2001 (H), Candida krusei ATCC 6258 (I), Candida parapsilosis ATCC 22019 (J), Cryptococcus neoformans ATCC MYA-895 (M), Aspergillus terreus ATCC MYA-3633 (N), and Aspergillus flavus ATCC MYA-3631 (0) were obtained from the American Type Culture Collection (ATCC; Manassas, VA, USA). Aspergillus nidulans ATCC 38163 (P) was obtained from University of Kentucky. Clinically derived Aspergillus fumigatus NRRL 163 (Q), A. fumigatus NRRL 5109 (R), and A. fumigatus NRRL 6113 (S) were obtained from Northern Regional Research Laboratory (NRRL). Candida auris 384 (K), C. auris 390 (L), and fungal strains 381-400 (including 10 C. auris (AR Bank #381-390), 3 Candida duobushaemulonii (AR Bank #391, AR Bank #392, and AR Bank #394), 2 Candida haemulonii (AR Bank #393 and AR Bank #395), 1 Kodameae ohmeri (AR Bank #396), 1 C. krusei (AR Bank #397), 1 Candida lusitaniae (AR Bank #398), and 2 Saccharomyces cerevisiae strains (AR Bank #399 and AR Bank #400)) were part of a larger fungal library from the AR Bank maintained by the Centers for Disease Control and Prevention (CDC; Atlanta, GA, USA). Filamentous fungi and yeasts were cultivated at 35° C. in RPMI 1640 medium (with L-glutamine, without sodium bicarbonate, Sigma-Aldrich, St. Louis, MO) buffered to a pH of 7.0 with 0.165 M morpholinepropanesulfonic acid (MOPS) buffer (Sigma-Aldrich). For cytotoxicity assays, HepG2 and the mouse macrophage cell line J774A.1 were obtained from University of Kentucky. The human embryonic kidney cell line, HEK-293, was bought from the ATCC. Mammalian cells were grown in Dulbecco's Modified Eagle's Medium (DMEM) (from VWR) with 10% fetal bovine serum (FBS) (from VWR) and 1% Pen/Strep (from ATCC). Cell lines were cultured at 37° C. with 5% CO2 and passaged by trypsinization with 0.05% trypsin: 0.53 mM EDTA (from Sigma-Aldrich).
(§2) The MIC values of compounds 1a-9j against yeast cells (strains A-P and 381-400) were determined in 96-well plates as described in the CLSI documents M27-A3 and M38-A2 with minor modifications.^2 A single colony of freshly prepared yeast cells was used to inoculate 5 mL of yeast extract peptone dextrose (YPD) broth prior to incubation overnight with shaking at 200 rpm at 35° C. From the actively growing yeast culture, 100 µL were then transferred to 900 μL of RPMI 1640 medium and re-adjusted to achieve OD600 of 0.12 (˜1×10^6 CFU/mL). The cell suspension was further diluted to achieve 1:100 in RPMI 1640 medium. 100 μL of cells were added to the wells of a 96-well microtiter plates that contained 100 µL of the compound solution to obtain concentrations of 0.06-31.3 μg/mL of compounds 1a-9j or AmB prior to incubation for 48 h at 35° C. […]

[2] = test system: Candida krusei ATCC 6258 (I)
Description: as §1, §2

[3] = test system: Candida parapsilosis ATCC 22019 (J)
Description: as §1, §2

[4] = test system: Aspergillus flavus ATCC MYA-3631 (O); details: strain O = A. flavus ATCC MYA-3631
Description: as §1
(§3) The MIC values of compounds 1a-9j against yeast cells (strains A-P and 381-400) were determined in 96-well plates as described in the CLSI documents M27-A3 and M38-A2 with minor modifications.^2 A single colony of freshly prepared yeast cells was used to inoculate 5 mL of yeast extract peptone dextrose (YPD) broth prior to incubation overnight with shaking at 200 rpm at 35° C. From the actively growing yeast culture, 100 µL were then transferred to 900 μL of RPMI 1640 medium and re-adjusted to achieve OD600 of 0.12 (˜1×10^6 CFU/mL). The cell suspension was further diluted to achieve 1:100 in RPMI 1640 medium. 100 μL of cells were added to the wells of a 96-well microtiter plates that contained 100 µL of the compound solution to obtain concentrations of 0.06-31.3 μg/mL of compounds 1a-9j or AmB prior to incubation for 48 h at 35° C.
(§4) Finally, the activity of these monohydrazides was explored against […] non-Candida strains: Cryptococcus neoformans ATCC MYA-895 (M), Aspergillus terreus ATCC MYA-3633 (N), Aspergillus flavus ATCC MYA-3631 (O), Aspergillus nidulans ATCC 38163 (P), Aspergillus fumigatus NRRL 163 (Q), A. fumigatus NRRL 5109 (R), and A. fumigatus NRRL 6113 (S) (Tables 1A and 1B). The double dilution method was used with concentrations ranging from 0.06 to 31.3 j·tg mL^−1 for monohydrazides 1a-9j, and the commercially available positive antifungal control amphotericin B (AmB).

[5] = test system: Aspergillus nidulans ATCC 38163 (P)
Description: as §1, §3, §4

[6] = test system: Aspergillus terreus ATCC MYA-3633 (N); details: strain N = A. terreus ATCC MYA-3633
Description: as §1, §3, §4

[7] = test system: Cryptococcus neoformans ATCC MYA-895 (M); details: strain M = C. neoformans ATCC MYA-895
Description: as §1, §3, §4

[8] = strain H = C. glabrata ATCC 2004 (footnote)
[9] = strain J = C. parapsilosis ATCC 22019
[10] = strain P = A. nidulans ATCC 38163
[11] = Nakaseomyces glabratus, ATCC 2001 / ATCC 2004, strain H = C. glabrata ATCC 2004 (footnote), read-out: MIC
[12] = Pichia kudriavzevii, ATCC6258, strain I = C. krusei ATCC 6258, read-out: MIC
[13] = Lodderomyces parapsilosis, ATCC22019, strain J = C. parapsilosis ATCC 22019, read-out: MIC
[14] = Aspergillus flavus, read-out: MIC
[15] = Aspergillus nidulans, ATCC38163, strain P = A. nidulans ATCC 38163, read-out: MIC
[16] = Aspergillus terreus, read-out: MIC
[17] = Cryptococcus neoformans, read-out: MIC

How did the MIC [1, 8] turn out when `O=C(NNc1cccc(F)c1)c1cccc(Br)n1` [Compound 6a] was run?
Its MIC is greater than 31.3 μg/mL^−1.

And the MIC ([2]; strain I = C. krusei ATCC 6258)?
The MIC was 0.49 μg/mL^−1.

And the MIC [3, 9]?
Its MIC is 1.95 μg/mL^−1.

And the MIC [4]?
Its MIC is 31.3 μg/mL^−1.

What about the MIC [5, 10] of the same compound?
Its MIC is 1.95 μg/mL^−1.

And the MIC [6]?
The MIC was 3.9 μg/mL^−1.

What about the MIC [7] of the same compound?
The MIC was no more than 0.06 μg/mL^−1.

Which MIC [1, 11] does the source give for `O=C(NNc1cccc(Cl)c1)c1ccc(F)cc1F` [Compound 1b] here?
Its MIC is greater than 31.3 µg/mL.

And the MIC [2, 12]?
Its MIC is 0.98 µg/mL (≈ 3.47 µM).

What about the MIC [3, 13] of the same compound?
Its MIC is 3.9 µg/mL (≈ 13.8 µM).

What about the MIC [4, 14] of the same compound?
The MIC was greater than 31.3 µg/mL.

And the MIC [5, 15]?
Its MIC is 3.9 µg/mL (≈ 13.8 µM).

And the MIC [6, 16]?
The MIC was 7.8 µg/mL (≈ 27.6 µM).

And the MIC [7, 17]?
Its MIC is 1.95 µg/mL (≈ 6.9 µM).

`O=C(NNc1ccc(Cl)cc1)c1nc(F)ccc1F` [Compound 8e] was tested. Which MIC [1, 8] did it give?
Its MIC is 3.9 μg/mL^−1.

And the MIC ([2]; strain I = C. krusei ATCC 6258)?
Its MIC is 3.9 μg/mL^−1.

What about the MIC [3, 9] of the same compound?
Its MIC is 15.6 μg/mL^−1.

And the MIC [4]?
Its MIC is greater than 31.3 μg/mL^−1.

What about the MIC [5, 10] of the same compound?
The MIC was 7.8 μg/mL^−1.

What about the MIC [6] of the same compound?
The MIC was greater than 31.3 μg/mL^−1.

And the MIC [7]?
The MIC was 1.95 μg/mL^−1.

`O=C(NNc1ccc(F)cc1F)c1ccccn1` [Compound 2g] was tested. Which MIC [1, 11] did it give?
Its MIC is 0.98 µg/mL (≈ 3.93 µM).

What about the MIC [2, 12] of the same compound?
Its MIC is 0.49 µg/mL (≈ 1.97 µM).

What about the MIC [3, 13] of the same compound?
Its MIC is 1.95 µg/mL (≈ 7.82 µM).

What about the MIC [4, 14] of the same compound?
Its MIC is 15.6 µg/mL (≈ 62.6 µM).

And the MIC [5, 15]?
Its MIC is 0.49 µg/mL (≈ 1.97 µM).

What about the MIC [6, 16] of the same compound?
The MIC was 0.98 µg/mL (≈ 3.93 µM).

And the MIC [7, 17]?
Its MIC is 0.24 µg/mL (≈ 0.963 µM).

Which results are given for `O=C(NNc1ccc(F)cc1)c1cccc(Br)n1` [Compound 6d]?
MIC [1, 11]: > 31.3 µg/mL; MIC [2, 12]: 0.49 µg/mL (≈ 1.58 µM); MIC [3, 13]: 7.8 µg/mL (≈ 25.2 µM); MIC [4, 14]: 15.6 µg/mL (≈ 50.3 µM); MIC [5, 15]: 0.98 µg/mL (≈ 3.16 µM); MIC [6, 16]: 3.9 µg/mL (≈ 12.6 µM); MIC [7, 17]: 0.98 µg/mL (≈ 3.16 µM)

For `O=C(NNc1cccc(F)c1)c1ccc(F)cn1` [Compound 3a], which MIC [1, 8] is on record?
Its MIC is 31.3 μg/mL^−1.

And the MIC ([2]; strain I = C. krusei ATCC 6258)?
Its MIC is 0.24 μg/mL^−1.

What about the MIC [3, 9] of the same compound?
Its MIC is 1.95 μg/mL^−1.

And the MIC [4]?
Its MIC is 7.8 μg/mL^−1.

And the MIC [5, 10]?
The MIC was 0.98 μg/mL^−1.

What about the MIC [6] of the same compound?
The MIC was 1.95 μg/mL^−1.

And the MIC [7]?
Its MIC is no more than 0.06 μg/mL^−1.

For `O=C(NNc1ccc(Cl)cc1)c1ccccn1` [Compound 2e], which MIC [1, 8] is on record?
The MIC was 1.95 μg/mL^−1.

And the MIC ([2]; strain I = C. krusei ATCC 6258)?
The MIC was 1.95 μg/mL^−1.

What about the MIC [3, 9] of the same compound?
Its MIC is 3.9 μg/mL^−1.

What about the MIC [4] of the same compound?
The MIC was 31.3 μg/mL^−1.

What about the MIC [5, 10] of the same compound?
The MIC was 0.49 μg/mL^−1.

And the MIC [6]?
The MIC was 3.9 μg/mL^−1.

What about the MIC [7] of the same compound?
The MIC was 0.49 μg/mL^−1.

For `O=C(NNc1cc(F)cc(F)c1)c1cnccn1` [Compound 9i], which MIC [1, 11] is on record?
The MIC was 7.8 µg/mL (≈ 31.2 µM).

And the MIC [2, 12]?
The MIC was 0.49 µg/mL (≈ 1.96 µM).

And the MIC [3, 13]?
Its MIC is 3.9 µg/mL (≈ 15.6 µM).

What about the MIC [4, 14] of the same compound?
Its MIC is 3.9 µg/mL (≈ 15.6 µM).

What about the MIC [5, 15] of the same compound?
Its MIC is 1.95 µg/mL (≈ 7.79 µM).

What about the MIC [6, 16] of the same compound?
Its MIC is 1.95 µg/mL (≈ 7.79 µM).

What about the MIC [7, 17] of the same compound?
The MIC was 0.24 µg/mL (≈ 0.959 µM).

How did the MIC [1, 11] turn out when `COc1ccc(NNC(=O)c2cccc(Br)n2)cc1` [Compound 6f] was run?
The MIC was 1.95 µg/mL (≈ 6.05 µM).

What about the MIC [2, 12] of the same compound?
Its MIC is 0.98 µg/mL (≈ 3.04 µM).

What about the MIC [3, 13] of the same compound?
The MIC was 3.9 µg/mL (≈ 12.1 µM).

What about the MIC [4, 14] of the same compound?
Its MIC is greater than 31.3 µg/mL.

What about the MIC [5, 15] of the same compound?
The MIC was 3.9 µg/mL (≈ 12.1 µM).

What about the MIC [6, 16] of the same compound?
The MIC was 7.8 µg/mL (≈ 24.2 µM).

What about the MIC [7, 17] of the same compound?
Its MIC is 1.95 µg/mL (≈ 6.05 µM).

`O=C(NNc1cc(Cl)cc(Cl)c1)c1ccc(F)cc1F` [Compound 1j] was tested. Which MIC [1, 11] did it give?
Its MIC is greater than 31.3 µg/mL.

And the MIC [2, 12]?
Its MIC is 1.95 µg/mL (≈ 6.15 µM).

What about the MIC ([2]; against strain I) of the same compound?
Its MIC is 1.95 j·tg mL^−1.

What about the MIC [3, 13] of the same compound?
Its MIC is greater than 31.3 µg/mL.

What about the MIC [4, 14] of the same compound?
The MIC was greater than 31.3 µg/mL.

What about the MIC [5, 15] of the same compound?
The MIC was 15.6 µg/mL (≈ 49.2 µM).

And the MIC [6, 16]?
The MIC was greater than 31.3 µg/mL.

And the MIC [7, 17]?
The MIC was 7.8 µg/mL (≈ 24.6 µM).
